ChEMBL document CHEMBL1201862, “PubChem BioAssay data set” (2004)
Activity calls are given as the source filed them.

Assays:
[1] = system: Streptococcus sp. 'group A'; assay: Streptococcus pyogenes SK(-)GAS viability under kanamycin – luminescence, BacTiterGlo, confirmation, counter-screen for streptokinase expression inhibitor project, dose response (AID 1900); assay type: functional, organism-based
[2] = biological target: T1, Streptokinase A (Streptococcus pyogenes serotype M1, UniProt P10520); assay: viability-normalized secreted streptokinase activity reduction – plasminogen activation absorbance, OD405, dose response (AID 1914); assay type: functional, Streptococcus pyogenes M1 GAS;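 also: secreted streptokinase activity via plasminogen activation per viability signal from cell pellet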
T1 sequence (P10520 whole entry): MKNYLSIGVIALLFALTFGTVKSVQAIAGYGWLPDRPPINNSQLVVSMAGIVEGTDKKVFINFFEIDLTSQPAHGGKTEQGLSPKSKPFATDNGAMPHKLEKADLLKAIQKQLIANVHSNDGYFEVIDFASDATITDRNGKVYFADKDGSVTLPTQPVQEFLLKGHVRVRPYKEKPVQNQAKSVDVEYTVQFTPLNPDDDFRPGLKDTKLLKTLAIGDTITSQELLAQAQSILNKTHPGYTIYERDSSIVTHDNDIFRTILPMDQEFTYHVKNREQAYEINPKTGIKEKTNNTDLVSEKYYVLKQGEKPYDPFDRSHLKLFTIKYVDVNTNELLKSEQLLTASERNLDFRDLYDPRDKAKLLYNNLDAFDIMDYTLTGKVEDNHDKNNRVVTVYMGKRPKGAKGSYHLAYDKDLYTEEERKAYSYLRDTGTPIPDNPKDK

[3] = biological target: T2, Kappa-type opioid receptor (Homo sapiens, UniProt P41145); assay type: functional
T2 sequence (P41145 whole entry): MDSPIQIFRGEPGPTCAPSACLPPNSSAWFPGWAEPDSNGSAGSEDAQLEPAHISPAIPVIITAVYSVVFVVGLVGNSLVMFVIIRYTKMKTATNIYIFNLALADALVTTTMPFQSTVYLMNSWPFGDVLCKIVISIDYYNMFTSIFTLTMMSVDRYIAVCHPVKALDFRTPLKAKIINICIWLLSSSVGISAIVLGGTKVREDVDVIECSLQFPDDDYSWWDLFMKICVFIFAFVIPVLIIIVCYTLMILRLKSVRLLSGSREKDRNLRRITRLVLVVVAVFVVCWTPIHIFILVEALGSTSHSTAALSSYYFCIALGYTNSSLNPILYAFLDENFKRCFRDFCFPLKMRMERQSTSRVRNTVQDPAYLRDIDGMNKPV

[4] = biological target: Beta-galactosidase (Escherichia coli, UniProt Q8VNN2); assay type: functional
Sequence of Beta-galactosidase (Q8VNN2 whole entry): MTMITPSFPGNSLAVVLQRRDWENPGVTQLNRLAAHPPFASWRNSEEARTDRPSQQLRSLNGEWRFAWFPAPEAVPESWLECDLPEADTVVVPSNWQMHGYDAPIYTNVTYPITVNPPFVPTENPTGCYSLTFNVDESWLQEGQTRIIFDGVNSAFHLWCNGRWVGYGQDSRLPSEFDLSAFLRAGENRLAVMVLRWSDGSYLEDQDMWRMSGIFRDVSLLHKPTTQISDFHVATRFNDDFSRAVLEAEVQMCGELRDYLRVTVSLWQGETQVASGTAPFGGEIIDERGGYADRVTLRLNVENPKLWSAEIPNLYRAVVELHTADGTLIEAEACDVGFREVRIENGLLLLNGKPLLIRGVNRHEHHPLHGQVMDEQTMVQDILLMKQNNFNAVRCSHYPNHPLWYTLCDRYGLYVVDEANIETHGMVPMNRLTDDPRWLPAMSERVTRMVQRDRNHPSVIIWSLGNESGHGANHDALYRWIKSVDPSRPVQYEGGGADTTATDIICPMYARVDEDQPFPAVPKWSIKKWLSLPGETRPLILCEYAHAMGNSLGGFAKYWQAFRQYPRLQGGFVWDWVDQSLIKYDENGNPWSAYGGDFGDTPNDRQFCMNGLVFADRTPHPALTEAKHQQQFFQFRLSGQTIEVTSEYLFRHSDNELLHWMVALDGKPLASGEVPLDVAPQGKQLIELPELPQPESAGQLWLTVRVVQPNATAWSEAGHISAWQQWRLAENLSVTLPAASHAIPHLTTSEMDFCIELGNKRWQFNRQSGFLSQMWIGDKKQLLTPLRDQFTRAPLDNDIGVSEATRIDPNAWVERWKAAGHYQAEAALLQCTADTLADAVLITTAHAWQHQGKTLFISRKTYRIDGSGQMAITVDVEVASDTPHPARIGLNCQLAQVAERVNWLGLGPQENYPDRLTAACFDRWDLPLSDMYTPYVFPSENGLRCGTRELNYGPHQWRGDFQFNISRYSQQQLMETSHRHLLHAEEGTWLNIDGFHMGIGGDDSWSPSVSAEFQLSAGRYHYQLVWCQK

[5] = biological target: T2, Kappa-type opioid receptor; assay type: functional; remark: listed apart in the source
[6] = system: Streptococcus; assay: GAS UMAA2166 growth inhibition – luminescence, BacTiterGlo, counter-screen for streptokinase expression inhibitor project, dose response (AID 1915); assay type: functional, organism-based;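 also: potency for reduction of bacterial viability or growth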
[7] = biological target: T3, Mu-type opioid receptor (Homo sapiens, UniProt P35372); assay: mu opioid receptor activators, image-based, SAR follow-up (AID 2352); assay type: functional
T3 sequence (P35372 whole entry): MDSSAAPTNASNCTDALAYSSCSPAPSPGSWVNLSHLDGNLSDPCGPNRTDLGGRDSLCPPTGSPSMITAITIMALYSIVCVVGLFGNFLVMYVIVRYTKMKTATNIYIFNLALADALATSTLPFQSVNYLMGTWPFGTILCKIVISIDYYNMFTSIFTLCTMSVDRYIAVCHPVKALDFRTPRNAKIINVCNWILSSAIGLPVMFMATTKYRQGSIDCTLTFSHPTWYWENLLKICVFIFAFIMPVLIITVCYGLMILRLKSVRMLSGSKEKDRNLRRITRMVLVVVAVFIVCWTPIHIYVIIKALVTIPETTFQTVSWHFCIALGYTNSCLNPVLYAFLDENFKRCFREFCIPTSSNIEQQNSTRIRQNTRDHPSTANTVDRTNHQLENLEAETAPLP

[8] = biological target: T4, Delta-type opioid receptor (Homo sapiens, UniProt P41143); assay: DOR agonists, SAR follow-up, image-based (AID 2370); assay type: functional
T4 sequence (P41143 whole entry): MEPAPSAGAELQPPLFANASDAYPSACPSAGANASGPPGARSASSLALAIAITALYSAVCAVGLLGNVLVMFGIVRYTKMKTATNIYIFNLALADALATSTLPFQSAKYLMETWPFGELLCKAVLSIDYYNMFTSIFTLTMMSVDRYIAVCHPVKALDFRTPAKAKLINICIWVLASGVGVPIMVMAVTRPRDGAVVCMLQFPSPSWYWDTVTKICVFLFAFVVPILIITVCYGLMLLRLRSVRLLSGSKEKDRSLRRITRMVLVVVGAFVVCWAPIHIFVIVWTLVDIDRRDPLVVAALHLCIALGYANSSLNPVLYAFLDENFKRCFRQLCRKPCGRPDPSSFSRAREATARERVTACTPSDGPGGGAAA

[9] = biological target: T2, Kappa-type opioid receptor; assay: kappa opioid receptor blockers, image-based, SAR follow-up (AID 2348); assay type: functional
[10] = biological target: T3, Mu-type opioid receptor; assay: mu opioid receptor blockers – image-based, SAR follow-up (AID 2420); assay type: functional;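 also: compounds added before stimulation of receptor with agonist DAMGO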
[11] = biological target: T2, Kappa-type opioid receptor; assay: kappa opioid receptor activation potency – imaging, image-based, SAR follow-up (AID 2359); assay type: functional
[12] = biological target: T5, Tyrosine-protein phosphatase non-receptor type 7 (Homo sapiens, UniProt P35236); assay: SAR analysis of chemical inhibitors of HePTP using a Fluorescent assay - Set 2. [Related pubchem assays (depositor defined):AID1059, AID1077, AID1661, AID2085, AID521]; assay type: functional
T5 sequence (P35236 whole entry): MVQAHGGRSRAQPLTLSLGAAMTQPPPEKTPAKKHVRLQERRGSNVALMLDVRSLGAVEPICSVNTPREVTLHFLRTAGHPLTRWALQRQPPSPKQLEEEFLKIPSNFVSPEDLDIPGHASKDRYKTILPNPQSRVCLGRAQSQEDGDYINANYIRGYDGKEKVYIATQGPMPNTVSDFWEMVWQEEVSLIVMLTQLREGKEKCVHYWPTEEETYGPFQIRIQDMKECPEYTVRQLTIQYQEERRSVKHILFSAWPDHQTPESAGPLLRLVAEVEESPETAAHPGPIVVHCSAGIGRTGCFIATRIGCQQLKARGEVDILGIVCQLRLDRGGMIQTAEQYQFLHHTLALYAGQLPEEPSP

[13] = biological target: Dual specificity protein phosphatase 3 (Homo sapiens, UniProt P51452); assay: SAR VHR1 Fluorescent Assay for In Vitro dose response studies Set 2. [Related pubchem assays (depositor defined):AID1654, AID1661, AID1878]; assay type: functional
Sequence of Dual specificity protein phosphatase 3 (P51452 whole entry): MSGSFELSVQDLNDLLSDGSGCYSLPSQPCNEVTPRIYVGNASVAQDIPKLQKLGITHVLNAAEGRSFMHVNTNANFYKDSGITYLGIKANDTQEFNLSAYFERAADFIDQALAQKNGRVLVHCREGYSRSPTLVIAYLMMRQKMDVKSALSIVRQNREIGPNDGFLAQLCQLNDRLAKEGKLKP

[14] = biological target: T4, Delta-type opioid receptor; assay: delta opioid receptor blockers – image-based, SAR follow-up (AID 2357); assay type: functional
[15] = biological target: T2, Kappa-type opioid receptor; assay: kappa opioid receptor blockers, cell-based, luminescence, beta-arrestin, SAR follow-up (AID 2285); assay type: functional
[16] = biological target: Hexokinase (Trypanosoma brucei, UniProt Q38C41); assay: Confirmation assay for inhibitors of Trypanosoma brucei hexokinase 1-Analogue-first series. [Related pubchem assays (depositor defined):AID1430, AID1632, AID2516, AID2560, AID2579, AID2600, AID449725, AID492951]; assay type: functional
Sequence of Hexokinase (Q38C41 whole entry): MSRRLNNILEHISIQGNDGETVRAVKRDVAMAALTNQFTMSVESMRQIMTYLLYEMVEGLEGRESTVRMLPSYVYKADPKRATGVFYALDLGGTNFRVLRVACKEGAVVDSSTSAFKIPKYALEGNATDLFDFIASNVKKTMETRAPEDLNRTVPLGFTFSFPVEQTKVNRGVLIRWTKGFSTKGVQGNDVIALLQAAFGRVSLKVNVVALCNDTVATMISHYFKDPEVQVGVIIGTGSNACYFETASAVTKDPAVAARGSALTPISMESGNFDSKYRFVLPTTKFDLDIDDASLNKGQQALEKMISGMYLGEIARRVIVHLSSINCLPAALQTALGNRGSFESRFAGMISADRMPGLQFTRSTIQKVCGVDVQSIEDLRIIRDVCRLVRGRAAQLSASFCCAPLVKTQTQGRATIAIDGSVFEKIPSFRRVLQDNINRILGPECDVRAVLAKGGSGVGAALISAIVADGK

[17] = A Cell Based Secondary Assay To Explore Cytotoxicity of Compounds that Sensitize Mycobacterium Tuberculosis to Beta-Lactam Antibiotics.; assay type: functional
[18] = Trypanosoma cruzi growth suppression in host cells – NIH3T3 host cells, beta-gal luminescence, confirmation (AID 2044); assay type: functional, cell-based;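 also: intracellular parasites grown in NIH/3T3 mouse fibroblasts as host cells; luminescent beta-galactosidase reporter signal from transgenic T. cruzi replicating inside host cells; inhibitors lower the luminescence signal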
[19] = NIH3T3 cell viability loss – ATP luminescence, mouse fibroblasts, counter-screen, dose response (AID 2010); assay type: functional, cell-based;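 also: cells exposed to compound for about 90 hours before reading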
[20] = biological target: NACHT, LRR and PYD domains-containing protein 3 (Homo sapiens, UniProt Q96P20); assay: NALP3 inhibitors in yeast, dose response, luminescent (AID 488799); assay type: functional
Sequence of NACHT, LRR and PYD domains-containing protein 3 (Q96P20 whole entry, the tested form may be a part): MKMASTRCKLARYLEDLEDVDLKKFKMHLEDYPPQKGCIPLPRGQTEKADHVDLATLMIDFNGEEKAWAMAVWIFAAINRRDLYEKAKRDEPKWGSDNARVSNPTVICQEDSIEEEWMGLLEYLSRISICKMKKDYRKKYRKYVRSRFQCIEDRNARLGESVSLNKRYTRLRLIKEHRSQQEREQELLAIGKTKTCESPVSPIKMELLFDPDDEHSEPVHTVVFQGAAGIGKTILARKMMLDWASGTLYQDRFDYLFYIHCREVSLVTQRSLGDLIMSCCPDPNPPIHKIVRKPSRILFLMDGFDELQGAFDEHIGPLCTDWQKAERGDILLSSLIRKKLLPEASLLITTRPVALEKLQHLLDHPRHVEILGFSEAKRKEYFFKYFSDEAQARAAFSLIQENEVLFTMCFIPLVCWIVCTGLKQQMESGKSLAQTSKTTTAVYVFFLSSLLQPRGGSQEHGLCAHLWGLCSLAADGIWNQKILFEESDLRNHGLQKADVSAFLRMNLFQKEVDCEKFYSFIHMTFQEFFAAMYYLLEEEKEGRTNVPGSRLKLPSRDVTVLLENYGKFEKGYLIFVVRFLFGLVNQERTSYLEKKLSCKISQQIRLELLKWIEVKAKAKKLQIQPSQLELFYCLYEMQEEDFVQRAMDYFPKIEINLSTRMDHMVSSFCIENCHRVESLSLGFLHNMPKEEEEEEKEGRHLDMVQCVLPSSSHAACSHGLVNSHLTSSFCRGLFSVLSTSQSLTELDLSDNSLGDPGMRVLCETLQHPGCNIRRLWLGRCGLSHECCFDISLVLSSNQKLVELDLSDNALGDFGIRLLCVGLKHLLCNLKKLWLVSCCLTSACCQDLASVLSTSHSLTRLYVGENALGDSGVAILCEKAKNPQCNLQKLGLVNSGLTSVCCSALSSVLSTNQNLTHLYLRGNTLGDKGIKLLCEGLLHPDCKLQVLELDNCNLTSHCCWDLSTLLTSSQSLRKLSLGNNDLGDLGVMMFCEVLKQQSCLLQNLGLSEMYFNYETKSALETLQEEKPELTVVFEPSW

Question: With O=C(NC(NC(=S)Nc1c(Cl)cccc1Cl)C(Cl)(Cl)Cl)OCc1ccccc1 (stereo not given) as the compound, how does the EC50 [1] read?
Answer: 1.65 µM (active)

Question: What about the EC50 [2] of the same compound?
Answer: 3.01 µM (active)

Question: And the IC50 [3]?
Answer: 3.48 µM (active)

Question: What about the EC50 [4] of the same compound?
Answer: > 31.5 µM (inactive)

Question: What about the IC50 [5] of the same compound?
Answer: 2.04 µM

Question: And the EC50 [6]?
Answer: 18 µM (active)

Question: What about the EC50 [7] of the same compound?
Answer: > 32 µM (inactive)

Question: What about the EC50 [8] of the same compound?
Answer: > 32 µM (inactive)

Question: What about the IC50 [9] of the same compound?
Answer: 0.74 µM (active)

Question: What about the IC50 [10] of the same compound?
Answer: 8.43 µM (active)

Question: And the EC50 [11]?
Answer: > 32 µM (inactive)

Question: What about the IC50 [12] of the same compound?
Answer: 63 µM (active)

Question: And the IC50 [13]?
Answer: 90 µM (active)

Question: And the IC50 [14]?
Answer: > 32 µM (inactive)

Question: What about the IC50 [15] of the same compound?
Answer: 1.15 µM (active)

Question: For COc1ccc(C(=O)Nc2c(C(=O)O)ccc(Cl)c2Cl)cc1, which IC50 [16] is on record?
Answer: > 25 µM (inactive)

Question: For O=C(CCS(=O)(=O)c1ccccc1)N(CCCN1CCOCC1)c1nc2c(F)cccc2s1, which CC50 [17] is on record?
Answer: > 40 µM (active)

Question: What about the EC50 [18] of the same compound?
Answer: 3.11 µM (active)

Question: What about the EC50 [19] of the same compound?
Answer: 4.45 µM (active)

Question: And the IC50 [20]?
Answer: 2.07 µM (active)
